Our source for the IC50 values is patent US9944639B2, “Quinolizinone derivatives as PI3K inhibitors” (Lupin Limited, priority 2014, dated 2018).

T1 sequence (O00329 whole entry): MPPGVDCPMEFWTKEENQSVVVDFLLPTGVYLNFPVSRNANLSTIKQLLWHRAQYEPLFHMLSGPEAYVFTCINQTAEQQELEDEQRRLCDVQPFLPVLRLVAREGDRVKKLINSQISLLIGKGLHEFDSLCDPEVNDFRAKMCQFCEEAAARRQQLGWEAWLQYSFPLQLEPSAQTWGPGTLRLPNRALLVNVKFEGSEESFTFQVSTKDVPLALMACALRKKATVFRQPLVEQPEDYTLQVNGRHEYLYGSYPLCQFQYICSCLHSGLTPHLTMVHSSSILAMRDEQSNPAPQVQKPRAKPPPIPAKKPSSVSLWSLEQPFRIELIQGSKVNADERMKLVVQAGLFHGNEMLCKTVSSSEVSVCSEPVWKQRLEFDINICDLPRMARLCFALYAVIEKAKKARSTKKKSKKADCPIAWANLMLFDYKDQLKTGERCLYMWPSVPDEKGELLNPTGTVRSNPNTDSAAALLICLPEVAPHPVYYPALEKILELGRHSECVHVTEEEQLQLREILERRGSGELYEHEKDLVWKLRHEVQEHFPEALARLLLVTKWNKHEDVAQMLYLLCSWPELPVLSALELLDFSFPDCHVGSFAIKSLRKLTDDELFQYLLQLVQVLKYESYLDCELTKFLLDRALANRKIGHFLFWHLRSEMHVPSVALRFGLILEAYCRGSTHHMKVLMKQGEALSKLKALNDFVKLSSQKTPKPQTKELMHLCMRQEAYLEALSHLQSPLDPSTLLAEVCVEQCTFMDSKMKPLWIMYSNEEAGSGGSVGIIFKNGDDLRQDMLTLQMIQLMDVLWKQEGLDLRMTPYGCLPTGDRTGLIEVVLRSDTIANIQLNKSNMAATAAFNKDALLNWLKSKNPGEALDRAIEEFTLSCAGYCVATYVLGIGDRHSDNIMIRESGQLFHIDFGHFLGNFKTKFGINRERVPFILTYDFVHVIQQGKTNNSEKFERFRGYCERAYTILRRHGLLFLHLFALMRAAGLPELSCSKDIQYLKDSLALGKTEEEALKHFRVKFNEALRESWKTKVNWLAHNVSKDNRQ
T1 sequence (P27986 whole entry partner): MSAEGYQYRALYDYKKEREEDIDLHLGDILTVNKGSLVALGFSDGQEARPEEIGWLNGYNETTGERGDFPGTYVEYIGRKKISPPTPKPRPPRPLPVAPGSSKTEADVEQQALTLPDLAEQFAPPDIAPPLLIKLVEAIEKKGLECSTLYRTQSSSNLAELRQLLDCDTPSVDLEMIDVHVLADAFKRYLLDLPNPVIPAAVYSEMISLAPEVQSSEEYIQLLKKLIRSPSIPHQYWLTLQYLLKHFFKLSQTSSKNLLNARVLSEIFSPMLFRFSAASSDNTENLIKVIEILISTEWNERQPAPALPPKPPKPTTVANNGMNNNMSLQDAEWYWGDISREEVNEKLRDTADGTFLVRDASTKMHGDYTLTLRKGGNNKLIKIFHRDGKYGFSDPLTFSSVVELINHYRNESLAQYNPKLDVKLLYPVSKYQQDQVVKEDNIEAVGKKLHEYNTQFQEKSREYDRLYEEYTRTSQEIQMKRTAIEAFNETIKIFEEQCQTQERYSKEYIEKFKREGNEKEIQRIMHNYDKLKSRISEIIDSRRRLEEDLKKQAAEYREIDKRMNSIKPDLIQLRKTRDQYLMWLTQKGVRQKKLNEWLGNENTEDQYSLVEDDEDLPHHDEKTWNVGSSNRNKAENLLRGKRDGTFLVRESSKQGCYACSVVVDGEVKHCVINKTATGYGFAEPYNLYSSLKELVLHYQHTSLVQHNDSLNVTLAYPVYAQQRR

This test addresses T1, PI3Kδ (Homo sapiens, UniProt O00329).
T1 construct: endogenous in cells; host or cells: Raji cells
Briefly: Cell Based Assay for PI3Kδ (AKT phosphorylation, AlphaScreen SureFire, anti-IgM stimulated Raji cells). The settings on record: compounds 1 h, anti-IgM (3 μg/mL) 30 min, phosphorylation of AKT, read-out: PI3Kδ inhibition IC50. As to the method:
[formula] C) Cell Based Assay for PI3Kδ
Raji cells were maintained in RPMI-1640 (Sigma) supplemented with 10% fetal bovine serum (heat inactivated) (FBS, Sigma), 100 U penicillin/mL, and […] streptomycin and incubated at 37° C. and 5% CO2. Cells were centrifuged and resuspended in a complete medium. The required numbers of cells were transferred to a tissue culture flask containing medium without serum for 1 h at 37° C., 5% CO2. Following 1 h serum starvation, cells were centrifuged and resuspended in Hank's Balanced Salt Solution (HBSS, Sigma) and seeded in at a density of 1 million cells/well in 96-well clear bottom plates. The cells were treated with test compounds for 1 h at 37° C., 5% CO2. Cells were then stimulated with anti-IgM (3 μg/mL) for 30 min. After Stimulation, cells were lysed with 15 μL of 5× lysis buffer and the plate was shaken on an orbital plate shaker at approximately 300 rpm for 10 min. AlphaScreen® SureFire® Cell-based Assay (Perkin-Elmer, Waltham, Mass., USA) was performed to measure phosphorylation of AKT, in the cells according to the manufacturer's instructions. The luminescence was measured using an alpha technology-compatible plate reader BMG Labtech, Germany) at 520-620 nm. Percentage inhibition was calculated according to formula: […]
IC50 values were calculated by plotting % inhibition against the respective concentrations of test compounds using GraphPad Prism 5.
Regarding `CC(c1cc2ccc(F)cn2c(=O)c1-c1ccccc1)n1nc(-c2ccc(O)c(F)c2)c2c(N)ncnc21` (centres unmarked) [Compound 60, 2-(1-(4-amino-3-(3-fluoro-4-hydroxyphenyl)-1H-pyrazolo[3,4-d]pyrimidin-1-yl)ethyl)-7-fluoro-3-phenyl-4H-quinolizin-4-one], the IC50 (usually the concentration that gives 50% inhibition) lay within 11 to 50 nM. Take `CC(c1cc2ccc(F)cn2c(=O)c1-c1ccccc1)n1nc(-c2ccc(F)c(O)c2)c2c(N)ncnc21` (centres unmarked) [Compound 61, 2-(1-(4-amino-3-(4-fluoro-3-hydroxyphenyl)-1H-pyrazolo[3,4-d]pyrimidin-1-yl)ethyl)-7-fluoro-3-phenyl-4H-quinolizin-4-one]: the 50% inhibitory concentration (IC50) was in the range of 0.1 to 10 nM.

On to `CC(c1cc2ccc(F)cn2c(=O)c1-c1ccccc1)n1nc(-c2cccc(O)c2)c2c(N)ncnc21` (centres unmarked) [Compound 62, 2-(1-(4-amino-3-(3-hydroxyphenyl)-1H-pyrazolo[3,4-d]pyrimidin-1-yl)ethyl)-7-fluoro-3-phenyl-4H-quinolizin-4-one], for which the 50% inhibitory concentration (IC50) was 0.1 to 10 nM. Consider `CC(c1cc2ccc(F)cn2c(=O)c1-c1ccccc1)n1cc(-c2cc(O)cc(F)c2)c2c(N)ncnc21` (centres unmarked) [Compound 63, 2-(1-(4-amino-5-(3-fluoro-5-hydroxyphenyl)-7H-pyrrolo[2,3-d]pyrimidin-7-yl)ethyl)-7-fluoro-3-phenyl-4H-quinolizin-4-one], for which the concentration for half-maximal inhibition (IC50) lay within 0.1 to 10 nM.

In the case of `CC(c1cc2ccc(F)cn2c(=O)c1-c1ccccc1)n1nc(-c2ccc3c(c2)CC(=O)N3)c2c(N)ncnc21` (centres unmarked) [Compound 65, 2-(1-(4-amino-3-(2-oxoindolin-5-yl)-1H-pyrazolo[3,4-d]pyrimidin-1-yl)ethyl)-7-fluoro-3-phenyl-4H-quinolizin-4-one], the 50% inhibitory concentration (IC50) was 51 to 250 nM.
